Drawing on patent US10233186B2, “Inhibitors of activin receptor-like kinase” (BLUEPRINT MEDICINES CORPORATION, priority 2016, dated 2019), this text covers IC50 for 51 compounds.

The target of this assay is T1, ALK2 R206H (GST-tagged mutant ALK2) (Homo sapiens, UniProt Q04771, R206H).
T1 construct: purchased Carna Bioscience or ThermoFisher 09-148 or PV6232
T1 sequence (Q04771 21-509 R206H): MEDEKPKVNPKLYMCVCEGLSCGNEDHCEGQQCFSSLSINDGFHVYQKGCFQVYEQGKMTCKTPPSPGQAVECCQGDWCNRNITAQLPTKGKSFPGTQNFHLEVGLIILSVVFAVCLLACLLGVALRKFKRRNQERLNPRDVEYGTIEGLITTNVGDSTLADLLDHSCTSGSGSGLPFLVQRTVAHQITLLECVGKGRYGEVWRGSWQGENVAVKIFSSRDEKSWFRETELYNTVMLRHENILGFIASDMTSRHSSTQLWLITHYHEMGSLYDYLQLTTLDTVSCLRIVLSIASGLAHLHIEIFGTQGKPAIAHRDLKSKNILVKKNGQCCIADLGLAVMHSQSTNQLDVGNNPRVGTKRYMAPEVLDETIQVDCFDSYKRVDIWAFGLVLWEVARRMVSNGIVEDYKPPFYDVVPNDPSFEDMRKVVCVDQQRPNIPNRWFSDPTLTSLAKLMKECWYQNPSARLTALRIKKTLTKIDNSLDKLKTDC
Nature of the assay: ALK binding assay (LANTHASCREEN TR-FRET competitive binding, displacement of Kinase Tracer 178). To be noted: ALK2 R206H, LANTHASCREEN TR-FRET competitive binding; read-out: Binding Assay (IC50). Here is the method: Binding assays were conducted using the LANTHASCREEN® technology (ThermoFisher Scientific). LANTHASCREEN® is a competitive binding, displacement assay where the assumed steady state occupancy of the binding site is measured using a time-resolved, fluorescence energy transfer (TR-FRET) readout between a fluorescent tracer and Europium (Eu)-tagged antibody specific for the kinase or expression tag (e.g. GST) of interest. Displacement of the tracer by a compound of the disclosure reduces, and is directly proportional to, the TR-FRET between the tracer and the antibody. Tracer was used at a concentration equal to or near to its Kd for the kinase.
In all cases, the kinase (2-5 nM) was mixed with Eu-tagged antibody (10 nM) mix and tracer (50 nM) were incubated with test compound titrations prepared in 100% DMSO (1% DMSO final) for 30 minutes at room temperature. All reagents and compounds were dissolved in Kinase Buffer A (ThermoFisher) to achieve the final concentration. […] This readout was normalized to 0% and 100% inhibited control wells, plotted against inhibitor concentration, and fitted to a 4-parameter log dose response curve.
Blank values in the table indicate that the particular compound was not tested in this assay.
On the technique in general: TR-FRET usually uses a lanthanide donor and a delayed reading to cut background.
In the case of `O=C(C1CC1)N1CCN(c2ccnn3cc(-c4ncc5n4CCNC5)cc23)CC1` [Compound 101], the IC50 (as a rule, the concentration that gives 50% inhibition) is greater than 50 nM.
The figure for `O=C(C1CC1)N1CCN(c2ccnn3cc(-c4ccn(C5CCNC5)n4)cc23)CC1` (stereo not drawn) [Compound 105] is 10 to 50 nM.
Then `CN1CCn2c(cnc2-c2cc3c(N4CCN(C(=O)C5CC5)CC4)ccnn3c2)C1` [Compound 106], with greater than 50 nM; and `O=C(C1CC1)N1CCN(c2ccnn3cc(-c4nc5c(s4)CCNC5)cc23)CC1` [Compound 108], with 10 to 50 nM.
Then `O=C(C1CC1)N1CCN(c2ccnn3cc(-c4ccc(Br)cc4)cc23)CC1` [Compound 119], with greater than 50 nM; and `O=C(C1CC1)N1CCN(c2ccnn3cc(-c4ccc(NC5=NCCN5)cc4)cc23)CC1` [Compound 121, cyclopropyl(4-(6-(4-(4,5-dihydro-1H-imidazol-2-ylamino)phenyl)pyrrolo[1,2-b]pyridazin-4-yl)piperazin-1-yl)methanone], with less than 10 nM.
For `O=C(C1CC1)N1CCN(c2ccnn3cc(-c4ccc(C5CCOCC5)cc4)cc23)CC1` [Compound 126], the IC50 fell in the range of 10 to 50 nM.
On to `CCN1CCN(c2ccc(-c3cc4c(N5CCN(C(C)=O)CC5)ccnn4c3)cc2)CC1` [Compound 136], for which the IC50 is 10 to 50 nM.
The figure for `CCN1CCC(n2ccc(-c3cc4c(N5CCN(C(=O)C6CC6)CC5)ccnn4c3)n2)C1` (stereo not drawn) [Compound 138] is 10 to 50 nM; for `CCN1CCC(n2cc(-c3cc4c(N5CCN(C(=O)C6CC6)CC5)ccnn4c3)cn2)C1` (stereo not drawn) [Compound 139] it is less than 10 nM; for `CCNC(=O)N1CCN(c2ccnn3cc(-c4ccc([C@H]5CNCCO5)cc4)cc23)CC1` [Compound 141] it is 10 to 50 nM.
For `O=C(C1CC1)N1CCN(c2ccnn3cc(-c4ccc(N5CCNCC5=O)cc4)cc23)CC1` [Compound 151], the IC50 is greater than 50 nM.
In the case of `CCN1CCN(c2ccc(-c3cc4c(N5CCN6C(=O)CCC6C5)ccnn4c3)cc2)CC1` (stereo not drawn) [Compound 157, 2-(6-(4-(4-ethylpiperazin-1-yl)phenyl)pyrrolo[1,2-b]pyridazin-4-yl)hexahydropyrrolo[1,2-a]pyrazin-6(7H)-one], the IC50 was greater than 50 nM.
For the compound `C[C@H]1CNC[C@@H](c2ccc(-c3cc4c(N5CCN(C(=O)C6CC6)CC5)ccnn4c3)cc2)O1` [Compound 165], the IC50 is 10 to 50 nM.
The figure for `O=C(C1CC1)N1CCN(c2ccnn3cc(-c4ccc(OCC5CCNC5)cc4)cc23)CC1` (stereo not drawn) [Compound 166] is less than 10 nM; for `C[C@@H]1CNC[C@@H](c2ccc(-c3cc4c(N5CCN(C(=O)C6CC6)CC5)ccnn4c3)cc2)O1` [Compound 168] it is 10 to 50 nM; for `CCN1CC2CN(c3ccnn4cc(-c5ccc(N6CCNCC6)cc5)cc34)CCN2C1=O` (stereo not drawn) [Compound 171] it is 10 to 50 nM.
With `O=C(C1CC1)N1CCN(c2ccnn3cc(-c4ccc([C@H]5CCNC[C@H]5F)cc4)cc23)CC1` [Compound 175], the IC50 lay within 10 to 50 nM.
The figure for `O=C(C1CC1)N1CCN(c2ccnn3cc(-c4ccc([C@@H]5CCNC[C@@H]5F)cc4)cc23)CC1` [Compound 176] is 10 to 50 nM.
The figure for `CCN1CCC(n2cc(-c3cc4c(N5CCN(C(=O)C6CC6)CC5)ccnn4c3)cn2)CC1` [Compound 183] is 10 to 50 nM; for `Cc1nc(C2CCNCC2)sc1-c1cc2c(N3CCN(C(=O)C4CC4)CC3)ccnn2c1` [Compound 190] it is less than 10 nM; for `O=C(C1CC1)N1CCN(c2ccnn3cc(-c4ccc(N5CCC6(CNC6)C5)cc4)cc23)CC1` [Compound 198] it is less than 10 nM.
Then `CCN1CCC[C@@H](c2ccc(-c3cc4c(N5CCN(C(=O)C6CC6)CC5)ccnn4c3)cc2)C1` [Compound 206], with less than 10 nM; and `CCN1CCC(c2ccc(-c3cc4c(N5CCN(C(=O)C(C)=O)CC5)ccnn4c3)cc2)CC1` [Compound 215], with 10 to 50 nM; and `CCN1CCC1COc1ccc(-c2cc3c(N4CCN(C(=O)C5CC5)CC4)ccnn3c2)cc1` (stereo not drawn) [Compound 218], with 10 to 50 nM.
Consider `CC(C)N1CC(Oc2ccc(-c3cc4c(N5CCN(C(=O)C6CC6)CC5)ccnn4c3)cc2)C1` [Compound 220], for which the IC50 is less than 10 nM.
Consider `O=C(C1CC1)N1CCN(c2ccnn3cc(-c4c(F)cc(N5CCNCC5)cc4F)cc23)CC1` [Compound 239], for which the IC50 is less than 10 nM.
Then `O=C(C1CC1)N1CCN(c2ccnn3cc(-c4ccc(N5CCC6(CCNC6)C5)cc4)cc23)CC1` (stereo not drawn) [Compound 244], with less than 10 nM.
Then `O=C(C1CC1)N1CCN(c2ccnn3cc(-c4ccc(OCCN5CCNCC5)cc4)cc23)CC1` [Compound 273, cyclopropyl(4-(6-(4-(2-(piperazin-1-yl)ethoxy)phenyl)pyrrolo[1,2-b]pyridazin-4-yl)piperazin-1-yl)methanone], with 10 to 50 nM; and `CCN1CCN(c2ccc(-c3cc4c(N5CCN(C(=O)[C@@H]6C[C@@H]6F)CC5)ccnn4c3)cc2)CC1` [Compound 291], with 10 to 50 nM.
The figure for `CCN1CCN(c2ccc(-c3cc4c(N5CCN(C(=O)C6(F)CC6)CC5)ccnn4c3)cc2)CC1` [Compound 294] is 10 to 50 nM.
As to `CC(C)N1CCC(c2ccc(-c3cc4c(N5CC6CC(C5)N6C(=O)C5CC5)ccnn4c3)cc2)CC1` [Compound 306], the IC50 was in the range of 10 to 50 nM.
The figure for `CCN1CCC(c2ccc(-c3cc4c(N5CCN(C(=O)C6(C(C)=O)CC6)CC5)ccnn4c3)cc2)C1` (stereo not drawn) [Compound 311] is greater than 50 nM; for `CCNC(=O)N1CC2CC(C1)N2c1ccnn2cc(-c3ccc(C4CCN(C(C)C)CC4)cc3)cc12` [Compound 319] it is greater than 50 nM; for `CCN1C[C@H]2CN(c3ccnn4cc(-c5ccc(N6CCN(C(C)C)CC6)cc5)cc34)CCN2C1=O` [Compound 331] it is 10 to 50 nM.
Regarding `CCN(C)C(=O)N1CCN(c2ccnn3cc(-c4ccc(C5CCN(C(C)C)CC5)cc4)cc23)CC1` [Compound 342], the IC50 is 10 to 50 nM.
Take `CCN1CCC(c2ccc(-c3cc4c(N5CCN(C(=O)C6(C(F)F)CC6)CC5)ccnn4c3)cc2)C1` (stereo not drawn) [Compound 356]: the IC50 lay in the range of 10 to 50 nM.
Then `CCN1CCN(c2cc(F)c(-c3cc4c(N5CCN(C(=O)C6CC6)CC5)ccnn4c3)c(F)c2)CC1` [Compound 362], with 10 to 50 nM.
The figure for `CCN1CCC(c2ccc(-c3cc4c(N5CCN(C(=O)C6CC6C6CCC6)CC5)ccnn4c3)cc2)C1` (stereo not drawn) [Compound 372] is less than 10 nM; for `O=C(C1CC1)N1CCN(c2ccnn3cc(-c4ccc(N5CCNCC5C(F)(F)F)cc4)cc23)CC1` (stereo not drawn) [Compound 374, cyclopropyl(4-(6-(4-(2-(trifluoromethyl)piperazin-1-yl)phenyl)pyrrolo[1,2-b]pyridazin-4-yl)piperazin-1-yl)methanone] it is 10 to 50 nM; for `N#C[C@H]1CC[C@H](C(=O)N2CCN(c3ccnn4cc(-c5ccc(C6CNCC6F)cc5)cc34)CC2)CC1` (stereo partly drawn) [Compound 378] it is less than 10 nM.
Regarding `CCN(CC)C(=O)N1CCN(c2ccnn3cc(-c4ccc(C5CCN(C(C)C)CC5)cc4)cc23)CC1` [Compound 392], the half-inhibitory concentration (IC50) lay in the range of 10 to 50 nM.
Then `CCN1CCN(c2ccc(-c3cc4c(N5CCN(C(=O)N6CC(OC)C6)CC5)ccnn4c3)cc2)CC1` [Compound 397], with 10 to 50 nM; and `CCN1CCN(c2ccc(-c3cc4c(N5CCN(C(=O)C6CC6)C(C(F)F)C5)ccnn4c3)cc2)CC1` (stereo not drawn) [Compound 403, cyclopropyl(2-(difluoromethyl)-4-(6-(4-(4-ethylpiperazin-1-yl)phenyl)pyrrolo[1,2-b]pyridazin-4-yl)piperazin-1-yl)methanone], with greater than 50 nM.
Then `CC(C)N1CCC(c2ccc(-c3cc4c(N5CCN(C(=O)C6CC(C#N)C6)CC5)ccnn4c3)cc2)CC1` (stereo not drawn) [Compound 405], with less than 10 nM.
In the case of `CCN1CCC(c2ccc(-c3cc4c(N5CCN(C(=O)C6(C(F)(F)F)CC6)CC5)ccnn4c3)cc2)C1` (stereo not drawn) [Compound 410], the IC50 was greater than 50 nM.
The figure for `CC(C)N1CCC(c2ccc(-c3cc4c(N5CCN(C(=O)C6(C7CC7)CC6)CC5)ccnn4c3)cc2)CC1` [Compound 414] is 10 to 50 nM.
The figure for `CCN1CCN(c2ccc(-c3cc4c(N5CCN(C(=O)N6CC7(COC7)C6)CC5)ccnn4c3)cc2)CC1` [Compound 417] is 10 to 50 nM; for `CCN1CCN(c2ccc(-c3cc4c(N5CCN(C(=O)N6CC(COC)C6)CC5)ccnn4c3)cc2)CC1` [Compound 425] it is greater than 50 nM.
Then `CCN1CCN(c2ccc(-c3cc4c(N5CCN(C(=O)C6(c7cccnc7)CC6)CC5)ccnn4c3)cc2)CC1` [Compound 433], with greater than 50 nM.
As for `CCN1CCN(c2ccc(-c3cc4c(N5CCN(C(=O)C6(c7cccs7)CC6)CC5)ccnn4c3)cc2)CC1` [Compound 438], the IC50 is 10 to 50 nM.
